This is an account of results in publication PMC3144732, “Rho-Rho kinase pathway in the actomyosin contraction and cell-matrix adhesion in immortalized human trabecular meshwork cells” (Molecular Vision, 2011).

Entries after “also recorded” stand apart in the source; their conditions may differ.

For one experiment, the system named is GTM3 cells. In words: Cell morphology (DIC), stress fibers and focal adhesions (F-actin, paxillin staining). It is filed as cell-based, human. The following applies: 1 h, serum-rich medium. As for the experimental part: Cells were first treated for the indicated time period in the serum-rich medium described earlier. Following a brief rinse with PBS, cells were fixed with 4% paraformaldehyde for 10 min and then permeabilized with 0.1% Triton-X for 10 min. For phosphorylated MLC staining, cells were blocked with 10% goat serum + 3% BSA, and, for vinculin and paxillin staining, the cells were blocked with 10% FBS for 1 h. Cells were incubated in primary antibody overnight, followed by secondary antibody incubation for 1 h. Double staining for actin was performed by incubating cells in Texas-red conjugated phalloidin for 20 min. After extensive washing, coverslips were mounted using ProLong AntiFade (Molecular Probes, Eugene, OR). Images were acquired using a Leica SP5 (Leica Microsystems, Bannockburn, IL) confocal microscope. After similar treatments, DIC images of cells fixed on coverslips were also obtained using a Nikon E800 (Nikon Instruments, Melville, NY) microscope.

Experiment [1] relates to MYPT1 phosphorylation at Thr696. In words: Western blot of MYPT1 phosphorylation at Thr696 in GTM3 cells. Type of experiment: cell-based, human. The following applies: 1 h, serum-rich medium; for IC50: GTM3 cells, densitometry of western blot, read-out: IC50 for dephosphorylation of MYPT1 at Thr696. As for the experimental part:
(§1) Cell cultures of an immortalized human glaucomatous trabecular meshwork (GTM3) cell line were grown at 37 °C in 5% CO2 in Dulbecco’s Minimum Essential Medium (DMEM + Glutamax) supplemented with 10% fetal bovine serum and 10 μg/ml of gentamicin (Invitrogen, Grand Island, NY) as previously described. Upon reaching confluence, cells were divided using 0.05% trypsin. Cells of passages 13 to 20 were used in our experiments.
(§2) Following treatment with the desired drugs/agents, cells were rinsed in PBS and solubilized in 300 µl of 2× Laemmli sample buffer. The lysate was sonicated briefly and boiled for 5 min. Equal amounts of protein (30 μg) were loaded in 8% or 12% SDS–PAGE gels. Following electrophoresis, proteins were transferred to a nitrocellulose membrane (Biorad, Hercules, CA), blocked with 5% fat-free milk for 1 h, and incubated with specific phospho-MYPT1 or phospho-MLC antibodies overnight. The membranes were next incubated with the appropriate secondary antibodies for 1 h. The blots were finally washed and developed using an enhanced chemiluminescence kit (Pierce, Rockford, IL) according to the manufacturer’s instructions.
(§3) A one-way ANOVA was used to compare mean values for different treatments with Bonferroni’s post-test analysis (Prism 5.0 for Windows; GraphPad Software, Inc., San Diego, CA). Results are expressed as mean±SEM. For analysis of ECIS (electrical cell-substrate impedance sensing) data, normalized numerical values from individual experiments were pooled and expressed as mean±SEM. A p value of less than 0.05 was considered statistically significant. “n” denotes the number of independent experiments performed. […] The calculations assume that log [drug] versus response follow a sigmoidal shape and were performed with Prism 5.0. The reported values of R indicate goodness of fit.

Experiment [2] has as its system MYPT1 phosphorylation at Thr853. In words: Western blot of MYPT1 phosphorylation at Thr853 in GTM3 cells. Type of experiment: cell-based, human. The following applies: 1 h, serum-rich medium; for effect on MYPT1 phosphorylation at Thr853: 5 μM; for IC50: GTM3 cells, densitometry of western blot, read-out: IC50 for dephosphorylation of MYPT1 at Thr853. As to the method:
as §1, §2, §3

The next experiment has as its system normal HTM cells. The following applies: 10 μM; cited from earlier work.
The test system of a further experiment is MLC phosphorylation. Description: Western blot of MLC phosphorylation (ppMLC) in GTM3 cells. It is filed as cell-based, human. The following applies: 1 h, serum-rich medium, densitometry of western blot, read-out: IC50 for dephosphorylation of MLC. As to the method: as §1
Following treatment with the desired drugs/agents, cells were rinsed in PBS and solubilized in 300 µl of 2× Laemmli sample buffer. The lysate was sonicated briefly and boiled for 5 min. Equal amounts of protein (30 μg) were loaded in 8% or 12% SDS–PAGE gels. Following electrophoresis, proteins were transferred to a nitrocellulose membrane (Biorad, Hercules, CA), blocked with 5% fat-free milk for 1 h, and incubated with specific phospho-MYPT1 or phospho-MLC antibodies overnight. The membranes were next incubated with the appropriate secondary antibodies for 1 h. […]
A one-way ANOVA was used to compare mean values for different treatments with Bonferroni’s post-test analysis (Prism 5.0 for Windows; GraphPad Software, Inc., San Diego, CA). Results are expressed as mean±SEM. For analysis of ECIS (electrical cell-substrate impedance sensing) data, normalized numerical values from individual experiments were pooled and expressed as mean±SEM. […]

In experiment [3] the test system is GTM3 cells (cell-matrix adhesion). In words: Electrical cell-substrate impedance sensing (ECIS), cell-matrix adhesion. Type of experiment: cell-based, human. As for the experimental part: Cells were seeded on gold electrode-plated culture plates (8W10E+) and placed in an incubator at 37 °C with humidified air and 5% CO2. The attachment and spreading of the cells on electrodes was monitored continuously at 4 kHz until the observed electrical resistance reached a plateau and stabilized. This usually occurred within 20–24 h after inoculation. Impedance to current flow was measured at different frequencies (25 Hz to 60 kHz) periodically before and after inoculation. After reaching the steady-state of electric-cell substrate resistance, cells were exposed to the ROCK inhibitors, and the impedance was assessed at different frequencies every 30 min. The change in the measured resistance normalized to that of the bare electrode was taken as a measure of cell-matrix adhesion as discussed further below.
ECIS involves the measurement of impedance to a small AC current applied across cells grown to confluence on planar gold microelectrodes. The measurement is non-invasive, and off-the-shelf instruments such as ECIS^TM 1600R (Applied Biophysics, Inc., Troy, NY) make use of a lock-in amplifier to measure small changes in electrical impedance at a high-temporal resolution. We have previously employed ECIS to assess the integrity of the apical junctional complex of the corneal endothelial monolayers. For epithelial monolayers, such as the corneal endothelium, the resistive component of the measured impedance implies trans-endothelial electrical resistance for current flow between the cells when confluent on the electrode. However, with non-epithelial cells, such as fibroblasts, measured impedance arises mainly out of resistance to current flow across the cell substrate (i.e., cell-matrix adhesion). In this study, we examined the dynamics of such cell-matrix resistance (i.e., resistive component of the measured impedance) with TM cells. […] This increase can be attributed to the attachment of cells to the substrate (gold electrode), which leads to an increased resistance to current flow. […]

For experiment [4], the system named is GTM3 cells (actomyosin contraction). In words: Collagen gel contraction assay with GTM3 cells. It is filed as cell-based, human. The following applies: for increase in the gel area (relaxation) compared with the control: 10 μM. As to the method:
A collagen gel contraction assay was performed as previously described. The wells of 24-well culture plates were coated with 1% BSA at 37 °C for 1 h. Glaucomatous trabecular meshwork cells were trypsinized and resuspended in culture medium at a density of 1×10^7 cells/ml. Rat-tail collagen Type I (BD Biosciences, San Jose, CA), 10× DMEM (Sigma, St. Louis, MO), reconstitution buffer (pH 7.3), TM cell suspension, and distilled water were mixed on ice to obtain a final concentration of 1.9 mg/ml of collagen and a final cell density of 2×10^5 cells/ml. The resultant mixture (0.5 ml) was added to each well of the BSA-coated culture clusters, and collagen gel formation was induced by incubation at 37 °C for 90 min. Serum-rich or serum-free DMEM (0.5 ml), without or with the drugs, was then added on top of the gels. After 1 h, the gels were freed from the walls of the culture wells. They were subsequently imaged every 24 h for 2 days. The area was calculated using NIH ImageJ software.

The conditions of experiment [5]: rabbits; cited from earlier work.
Experiment [6] relates to paxillin (Tyr118) phosphorylation. Description: Serum-induced tyrosine phosphorylation of paxillin (Tyr118), western blot. As to conditions: 1 μM pretreatment, 10% serum added to serum-starved cells. Type of experiment: cell-based, human.
Experiment [7] has as its system FAK (Tyr397) phosphorylation. In words: Serum-induced tyrosine phosphorylation of FAK (Tyr397), western blot. Type of experiment: cell-based, human. As to conditions: 1 μM pretreatment, 10% serum added to serum-starved cells.

Regarding `C[C@@H](N)[C@H]1CC[C@H](C(=O)Nc2ccncc2)CC1` [Y-27632], in the experiment on GTM3 cells (5 μM), the “change in cell shape (DIC images)” value was “apparent shrinkage, with cells assuming a stellate appearance”; the “effect on stress fibers and focal adhesions” value is “complete loss of stress fibers and focal adhesions”. The “effect on MYPT1 phosphorylation at Thr696” value in experiment [1] (5 μM) is on record as “comparatively smaller reduction; also recorded: only slightly reduced; also recorded: only a marginal decrease”. For the same molecule, in experiment [1], the IC50 turned out to be 2270 nM. In addition, in experiment [2], the “effect on MYPT1 phosphorylation at Thr853” value is recorded as “complete dephosphorylation” and the IC50 stood at 658 nM. The gel contraction allowed with normal HTM cells is on record as 30%. The IC50 in the experiment with MLC phosphorylation is 1060 nM. In addition, the “change in electrical cell-substrate resistance” value in experiment [3] (5 μM, up to 2 h) was “significant decrease in the peak resistance”. Further, the “increase in the gel area (relaxation) compared with the control” value in experiment [4] (48 h, 10% serum) is given as 50%.
For the molecule `C[C@@H](N)c1ccc(C(=O)Nc2ccnc3[nH]ccc23)cc1` [Y-39983], the “change in cell shape (DIC images)” value in the experiment with GTM3 cells (1 μM) is listed as “apparent shrinkage, with cells assuming a stellate appearance”. The “effect on stress fibers and focal adhesions” value is “complete loss of stress fibers and focal adhesions” in the experiment on GTM3 cells (1 μM); “loss of stress fibers” with GTM3 cells (5 μM). The “decrease in IOP compared to Y-27632” value in [5] was 10 fold. For the same molecule, the IC50 in experiment [1] stood at 177 nM; in experiment [2], 15 nM; in the experiment with MLC phosphorylation, 14 nM. Also, in experiment [2], the “effect on MYPT1 phosphorylation at Thr853” value was “complete dephosphorylation”. Further, in [3] (1 μM, up to 2 h), the “change in electrical cell-substrate resistance” value was “significant decrease in resistance; also recorded: rapid and more pronounced”. Further, in [4] (1 μM, 48 h, 10% serum), the “increase in the gel area compared with the control” value worked out at 86±5%. Besides, the “decrease in the contraction of the collagen gels” value in experiment [4] (5 μM) was 100%. Further, the “effect on serum-induced phosphorylation of paxillin at Tyr118” value in [6] is “opposed”. The “effect on serum-induced tyrosine phosphorylation of FAK at Tyr397” value in experiment [7] was “opposed”.
Turning to `Cc1ccc2c(c1)C(=O)C1(O)CCN(c3ccccc3)C1=N2` (stereo not shown) [blebbistatin], in experiment [4] (48 h, 10% serum), the “increase in the gel area (relaxation) compared with the control” value came out at 102±1.3%.
Consider `C=C1[C@@H](C)[C@H]2[C@H](Cc3ccccc3)NC(=O)[C@]23[C@H](OC(C)=O)/C=C/[C@@](C)(O)C(=O)[C@@H](C)C/C=C/[C@H]3[C@@H]1O` [cytochalasin D], for which the “change in electrical cell-substrate resistance” value in [3] (0.125 mg/ml) is “significant decrease in the measured resistance; also recorded: substantial decrease in the resistance”.
